From a melting point compilation (Tetko et al.; mined from patent text by program, amines drawn as free bases though some values may be those of a salt) come the findings set out here.

SMILES strings stand for the structures.

The term melting point denotes the temperature, or range, at which the solid turns liquid. For the molecule `COCCOc1cc(NS(=O)(=O)c2ccccn2)c2[nH]c(C(=O)NCC(CN3CCSCC3)SCc3ccccc3)cc2c1` (stereo unspecified), the melting point was 160 to 161 °C.
`Cc1cc(C(=O)N[C@H]2CC[C@H](CCN3CCN(c4nccc5c4OCC5)CC3)CC2)on1` displayed a melting point of 199 °C.
With `COc1cccnc1C(O)c1ccc(NC(=O)C2=Cc3cc(-c4ccc(C)cc4)ccc3OCC2)cc1` (stereo unspecified), the melting point was 232 to 233 °C.
Molecule `O=C(Nc1ccc(C(F)(F)F)nc1C1CCN(CC=Cc2ccc(Cl)cc2)CC1)c1ccnc(Cl)c1` displayed a melting point of 134 to 135 °C.
For the molecule `O=C1C2CCCC2=Nc2ccccc2N1Cc1ccccc1F` (stereo unspecified), the melting point lay within 135 to 137 °C.
Molecule `O=C(O)c1cnc(S)n1Cc1cc(F)cc(F)c1` gave a melting point of 240 to 241 °C.
The molecule `COc1cc2c(cc1Nc1ncc(Cl)c(Nc3ccc(N4CCOCC4)cc3OC)n1)CCN(C[C@H](O)C(F)(F)F)CC2` displayed a melting point of 95 to 102 °C.
As to `COc1cc(OC)nc(CC(=O)O)n1`, the melting point fell in the range of 175 to 177 °C.
`CN1NC(C2CCCC2)=CC1C(=O)O` (stereo unspecified): the melting point is 123 to 128 °C.
`O=C(c1ccc(Oc2ccc(S(=O)c3ccc(Oc4ccc(C(=O)C(Cl)(Cl)Cl)cc4)cc3)cc2)cc1)C(Cl)(Cl)Cl`: the melting point was 154 to 156 °C.
For `O=C(NO)c1ccc2c(c1)CN(C(=O)c1ccc(-c3ccccc3)cc1)C2` the value was 160 to 190 °C; for `COCCc1nc2c(N)nc3ccccc3c2n1CCCCCCCCNC(=O)c1ccccc1`, 133 to 138 °C; for `COc1cc(Cl)c(N=C2NCCN2OCc2ccccc2)c(Cl)c1`, 90 to 92 °C.
For the molecule `Cc1nn(C)c2nc(N)nc(N)c2c1=O`, the melting point was more than 275 °C.
Regarding `COC(=O)c1cccc(CCN(C)CCCC(C#N)(C(=O)OC)c2ccc(OC)c(OC)c2)c1` (stereo unspecified), the melting point fell in the range of 94 to 95 °C.
Turning to `CCOC(=O)C1(C(=O)Nc2ccc(F)cc2F)CC1`, the melting point was in the range of 79 to 80.5 °C.
The figure for `c1cnc2ccc(Cn3nnc4ccc(-n5ccnc5)nc43)cc2c1` is 227 to 230 °C; for `CCCCCCCCCCCCC#CC(O)(CCCCC(=O)O)CCCCC(=O)O` it is 65 to 66 °C.
Regarding `COc1ccc2ccccc2c1CONC(C)=O`, the melting point is 112 °C.
`COc1cc2nc(SCc3ccccc3)nn2c(Cl)n1`: the melting point is 140 to 141 °C.
The molecule `CC(=O)C1=CCC2C3CCC4CC(O)CCC4(C)C3C(OC(=O)CCl)CC12C` (stereo unspecified) returned a melting point of 160 to 162 °C.
The figure for `CC(=O)c1c(C)[nH]c(C(C)C)c1C` is 166 to 167 °C.
For `O=C(c1ccccc1C(c1ccc(O)cc1)c1ccc(O)cc1)N(c1ccccc1)c1ccccc1` the value was 262 to 263 °C.
In turn, `CCCCCCCCCCCCc1cc(C)on1` came in with a melting point of 35 to 38 °C.
The figure for `CCN1CCN(CC)c2cc(Nc3nc(Cl)ncc3Cl)ccc2C1=O` is 71 to 74 °C; for `CCCc1cc(Cl)c2oc(-c3ccccc3)c(C)c2c1OC(C)=O` it is 86 to 87 °C.
The figure for `c1ccc(CN2CCN(CCCCc3c[nH]c4ccc(-n5cnnc5)cc34)CC2)nc1` is 115 to 118 °C; for `COc1cccc2c1nc(-c1c(F)cccc1F)n2CC=C(C)C` it is 101 to 103 °C; for `COC(=O)CCCCCOc1ccc(N=C=O)cc1` it is 47 to 50 °C.
`CCCN1CCC(C2=C(C#N)C(c3cccc4nonc34)c3c[nH]nc3N2)CC1` (stereo unspecified) returned a melting point of 246 °C.
As for `CCCNC1=NS(=O)(=O)c2cc(Cl)sc2N1`, the melting point is 246 to 247 °C.
`COc1ccc(Cl)c(Oc2c(CO)nc(N3CCOCC3)nc2NS(=O)(=O)c2ccc(C(C)C)cn2)c1` had a melting point of 105 °C.
As for `Clc1ccc(-c2cc(Cl)c3cc(Cl)ccc3n2)cc1`, the melting point was in the range of 204 to 208 °C.
Turning to `O=C1c2cc(O)ccc2OCC1Cc1nccs1` (stereo unspecified), the melting point lay in the range of 150 to 152 °C.
Molecule `CCOC(=O)c1c(Cl)nc2ccccc2c1CCl` displayed a melting point of more than 260 °C.
On to `O=[N+]([O-])c1cc(Cl)ccc1NCCSSCCNc1ccc(Cl)cc1[N+](=O)[O-]`, for which the melting point lay within 187 to 188 °C.
The figure for `O=c1ccc(-c2c(-c3ccccc3)nn3ccncc23)c[nH]1` is more than 250 °C; for `COC(=O)c1c(OC(=O)N(c2ccccc2)c2ccccc2)cc(C(F)(F)F)nc1C(F)(F)F` it is 114 to 116 °C.
For `Cc1cc(C2=CCN(CCCC(=O)c3ccc(F)cc3)CC2)on1` the value was 96 to 98 °C; for `Nc1ccc(C(=O)c2c(F)cccc2F)c(N)n1`, 179 to 181 °C.
Molecule `O=C1OC(CI)CN1c1cc(F)c(-c2cccnc2)c(F)c1` (stereo unspecified) had a melting point of 133 to 134 °C.
In turn, `COc1cc(Cl)c(N=C=S)cc1C(=O)Nc1c(C)cccc1C` yielded a melting point of 191 to 192 °C.
Molecule `C#Cc1nc(-c2ccco2)c2ncn(Cc3ccc(OC)cc3)c2n1` returned a melting point of 155 °C.
`COc1ccc(Oc2ccc(S(C)(=O)=O)cc2)cc1` returned a melting point of 152 to 153 °C.
On to `Cc1cc(N2CCNCC2)ccc1NS(C)(=O)=O`, for which the melting point fell in the range of 79 to 81 °C.
Turning to `COc1ccc2[nH]c(CCCCCCCCCCCCCCO)cc2c1`, the melting point was in the range of 68 to 69 °C.
`CC(C)(CO)CCCC(O)CCCC(O)CCCC(C)(C)CO` (stereo unspecified) gave a melting point of 85 to 86 °C.
Take `CC(C)(C)c1cc2c(c(C(C)(C)C)c1)OC(=O)C2c1ccc(OCC(=O)O)cc1` (stereo unspecified): the melting point was 158 to 162 °C.
The figure for `Cc1cn(-c2ccc(NC(=O)c3ccc(Cl)c(C#Cc4cnc(NC5CC5)nc4)c3)cc2C(F)(F)F)cn1` is 141 to 143 °C.
Turning to `CC(=O)OCC1CCc2c(C3=C(c4cn(C)c5ccccc45)C(=O)OC3=O)c3ccccc3n2CC1` (stereo unspecified), the melting point was 70 °C.
In the case of `CC1CC2=C(OC(NC=N)C2)c2ccc(=O)[nH]c21` (stereo unspecified), the melting point is more than 250 °C.
`NC(=O)c1ccc2c(c1)C(=O)C1(CC1)O2`: the melting point fell in the range of 243 to 244 °C.
For the molecule `COCc1oc(C)cc(=O)c1OCc1ccccc1`, the melting point was in the range of 30 to 32 °C.
For `Nc1ccc(Cl)c(C2SCCS2)c1` the value was 60 to 63 °C.
Take `Cc1ccc(CC(C(=O)c2ccccc2)N2CCCCC2)cc1` (stereo unspecified): the melting point is 71 to 72 °C.
As to `C[C@@H](Nc1c(Nc2cccnc2)c(=O)c1=O)C(C)(C)C`, the melting point was in the range of 283 to 285 °C.
Consider `C#CCC(=C1NCCCS1)[N+](=O)[O-]`, for which the melting point is 132 to 135 °C.
The molecule `OCc1cn2c(n1)CN=C(c1ccccc1)c1cc(C(F)(F)F)ccc1-2` showed a melting point of 193 to 194 °C.
Molecule `COC(=O)Cn1oc2cc(OC)ccc2c1=O` yielded a melting point of 185 to 188 °C.
`CCc1nc(/C=C/c2cn(-c3ccccc3)nc2O)cs1`: the melting point is 222 to 224 °C.
Turning to `CN1Cc2c(C(N)=O)ncn2-c2ccc(Cl)cc2C1=O`, the melting point lay in the range of 275 to 277 °C.
`CC1(C)CC(=O)c2cc(O)ccc2O1` gave a melting point of 158 °C.
As for `CC(C)(NC(=O)CCn1cncc1C=O)c1ccc(Cl)cc1`, the melting point lay in the range of 127 to 129 °C.
For `N#CN1CCC(C2c3ccccc3NN2c2ccccc2Cl)CC1` (stereo unspecified) the value was 109 to 111 °C.
`CSC(C)=NOC(=O)NCSN(C(C)(C)C)P1(=O)OCC(C)(C)CO1` came in with a melting point of 134 °C.
For the molecule `O=C(CCc1c[nH]c2ccccc12)NCc1ccccc1`, the melting point is 73 to 75 °C.
